Key:
HBO-KAT7 = HBO-KAT7 (Homo sapiens, UniProt O95251); assay: Acetyltransferase biochemical assay (AlphaScreen), KAT7
MOZ-KAT6A = MOZ-KAT6A (Homo sapiens, UniProt Q92794, A567V); assay: Acetyltransferase biochemical assay (AlphaScreen), KAT6A
[1] = system: acetylation of the histone H3 Lysine 14 marker in U2OS cells; assay: Histone H3 Lysine 14 Acetylation Biomarker Assay; type: cell-based; settings: Homo sapiens, serum free medium, 24 hours incubation, read-out: IC50, inhibition of histone H3 Lysine 14 acetylation
Protocol: Compounds were tested for their ability to inhibit acetylation of the histone H3 Lysine 14 marker in the following assay:
The cell line U2OS was seeded at a density of 3,000 cells per well in 384-well optical quality tissue culture plates in RPMI medium supplemented with 10% foetal bovine serum and 10 mM Hepes. The cells were allowed to adhere for 24 hours under standard culture conditions (37 degree Celsius, 5% CO2). At the end of this period the cells were washed with serum free medium. […] After incubation for 24 hours, the cells were fixed with 4% formaldehyde in PBS for 15 minutes at room temperature, washed with phosphate buffer saline and blocked with blocking buffer containing 0.2% TritonX100 and 2% BSA. Anti-H3K14ac specific antibody (Cell Signalling Technologies) in blocking buffer was added and incubated overnight at 4 degree Celsius. After washing, a secondary antibody labelled with AlexaFluor 488 dye (ThermoFisher) and Hoechst 33342 (1 μg/mL, Life Technologies) were added for 2 hours incubation at room temperature. Plates were washed and read on a PerkinElmer Opera HCS high content imaging platform. Using a Columbus image analysis pipeline, individual nuclei were located by Hoechst 33342 stain and the acetylation level was calculated from the AlexaFluor 488-related intensity in the same area.

QKF-KAT6B = molecular target: T1, QKF-KAT6B (Homo sapiens, UniProt Q8WYB5); assay: Acetyltransferase biochemical assay (AlphaScreen), KAT6B; settings: 8 nM KAT6B, 1 μM AcCoA, 100 nM histone H3.1
T1 construct: purchased SignalChem K315-381BG
Excerpt: KAT6B was obtained from SignalChem, catalog ID: K315-381BG

[2] = system: acetylation of the histone H3K23 marker in U2OS cells; assay: Histone H3 Lysine 23 Acetylation Biomarker Assay; type: cell-based; settings: Homo sapiens, 24 hours incubation, read-out: IC50, inhibition of histone H3K23 acetylation
Protocol: Compounds were tested for their ability to inhibit acetylation of the histone H3K23 marker in the following assay:
The cell line U2OS was seeded at a density of 9,000 cells per well in 96 well optical quality tissue culture plates in RPMI medium and 10% foetal bovine serum, and allowed to adhere for 24 hours under standard culture conditions (37 degree Celsius, 5% CO2). At the end of this period the medium was aspirated. […] After incubation for 24 hours, the cells were fixed with 3.7% formaldehyde in PBS for 20 minutes at room temperature, washed (5×5 minutes) with phosphate buffer saline containing 0.1% Tween 20 and blocked with Odyssey blocking buffer (LI-COR, Lincoln, Nebr.) containing 0.1% TritonX100. Anti-H3K23ac specific antibody (Abcam ab177275) in Odyssey blocking buffer containing 0.1% Tween 20 was added and incubated for 16 hours at 4 degree Celsius. After washing (as above), a secondary antibody labelled with Alexa647 dye (LifeTechnologies) and Hoechst 33342 (1 μg/mL, SigmaAldrich) were added for 1 hour incubation. Plates were washed as previously and read on a PerkinElmer Phenix high content imaging platform. Using a Columbus image analysis pipeline, individual nuclei were located by Hoechst 33342 stain and the acetylation level was calculated from the Alexa647-related intensity in the same area.

MOF-KAT8 = molecular target: T2, MOF-KAT8 (Homo sapiens, UniProt Q9H7Z6); assay: biochemical
T2 sequence (Q9H7Z6 with tags, fused parts or gaps): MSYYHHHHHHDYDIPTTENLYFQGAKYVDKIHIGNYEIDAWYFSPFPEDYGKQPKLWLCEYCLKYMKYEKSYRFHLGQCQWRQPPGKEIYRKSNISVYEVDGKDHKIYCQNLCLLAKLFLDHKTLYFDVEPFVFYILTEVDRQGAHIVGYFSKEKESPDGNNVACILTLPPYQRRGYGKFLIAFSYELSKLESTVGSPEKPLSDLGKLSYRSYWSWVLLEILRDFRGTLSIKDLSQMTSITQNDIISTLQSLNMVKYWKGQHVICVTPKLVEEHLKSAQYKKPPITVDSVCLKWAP

TIP60-KAT5 = TIP60-KAT5 (Homo sapiens, UniProt Q92993); assay: Acetyltransferase biochemical assay (AlphaScreen), KAT5
[3] = system: histone H2A.Z Lysine 7 acetylation marker in U2OS cells; assay: H2A.Z Lysine 7 Acetylation Biomarker Assay; type: cell-based; settings: Homo sapiens, serum free medium, 24 hours incubation, read-out: IC50, inhibition of histone H2A.Z Lysine 7 acetylation
Protocol: Compounds were tested for their ability to inhibit the histone H2A.Z Lysine 7 acetylation marker in the following assay:
The cell line U2OS was seeded at a density of 3,000 cells per well in 384-well optical quality tissue culture plates in RPMI medium supplemented with 10% foetal bovine serum and 10 mM Hepes. The cells were allowed to adhere for 24 hours under standard culture conditions (37 degree Celsius, 5% CO2). At the end of this period the cells were washed with serum free medium. […] 2018, at 30 μM concentration. After incubation for 24 hours, the cells were fixed with 4% formaldehyde in PBS for 15 minutes at room temperature, washed with phosphate buffer saline and blocked with blocking buffer containing 0.2% TritonX100 and 2% BSA. Anti-H2A.ZK7ac specific antibody (Abcam) in blocking buffer was added and incubated overnight at 4 degree Celsius. After washing, a secondary antibody labelled with AlexaFluor 488 dye (ThermoFisher) and Hoechst 33342 (1 μg/mL, Life Technologies) were added for 2 hours incubation at room temperature. Plates were washed and read on a PerkinElmer Opera HCS high content imaging platform. Using a Columbus image analysis pipeline, individual nuclei were located by Hoechst 33342 stain and the acetylation level was calculated from the AlexaFluor 488-related intensity in the same area.

Chain of HBO-KAT7 (O95251 with tags, fused parts or gaps): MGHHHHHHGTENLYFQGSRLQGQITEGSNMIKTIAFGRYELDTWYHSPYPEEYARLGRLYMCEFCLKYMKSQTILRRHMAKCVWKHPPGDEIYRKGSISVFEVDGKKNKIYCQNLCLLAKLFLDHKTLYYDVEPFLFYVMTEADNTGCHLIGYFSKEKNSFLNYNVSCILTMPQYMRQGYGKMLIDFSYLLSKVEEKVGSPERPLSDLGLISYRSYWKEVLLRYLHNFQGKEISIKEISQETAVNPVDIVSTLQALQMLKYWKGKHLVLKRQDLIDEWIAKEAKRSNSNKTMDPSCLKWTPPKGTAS
T1 sequence (Q8WYB5 whole entry): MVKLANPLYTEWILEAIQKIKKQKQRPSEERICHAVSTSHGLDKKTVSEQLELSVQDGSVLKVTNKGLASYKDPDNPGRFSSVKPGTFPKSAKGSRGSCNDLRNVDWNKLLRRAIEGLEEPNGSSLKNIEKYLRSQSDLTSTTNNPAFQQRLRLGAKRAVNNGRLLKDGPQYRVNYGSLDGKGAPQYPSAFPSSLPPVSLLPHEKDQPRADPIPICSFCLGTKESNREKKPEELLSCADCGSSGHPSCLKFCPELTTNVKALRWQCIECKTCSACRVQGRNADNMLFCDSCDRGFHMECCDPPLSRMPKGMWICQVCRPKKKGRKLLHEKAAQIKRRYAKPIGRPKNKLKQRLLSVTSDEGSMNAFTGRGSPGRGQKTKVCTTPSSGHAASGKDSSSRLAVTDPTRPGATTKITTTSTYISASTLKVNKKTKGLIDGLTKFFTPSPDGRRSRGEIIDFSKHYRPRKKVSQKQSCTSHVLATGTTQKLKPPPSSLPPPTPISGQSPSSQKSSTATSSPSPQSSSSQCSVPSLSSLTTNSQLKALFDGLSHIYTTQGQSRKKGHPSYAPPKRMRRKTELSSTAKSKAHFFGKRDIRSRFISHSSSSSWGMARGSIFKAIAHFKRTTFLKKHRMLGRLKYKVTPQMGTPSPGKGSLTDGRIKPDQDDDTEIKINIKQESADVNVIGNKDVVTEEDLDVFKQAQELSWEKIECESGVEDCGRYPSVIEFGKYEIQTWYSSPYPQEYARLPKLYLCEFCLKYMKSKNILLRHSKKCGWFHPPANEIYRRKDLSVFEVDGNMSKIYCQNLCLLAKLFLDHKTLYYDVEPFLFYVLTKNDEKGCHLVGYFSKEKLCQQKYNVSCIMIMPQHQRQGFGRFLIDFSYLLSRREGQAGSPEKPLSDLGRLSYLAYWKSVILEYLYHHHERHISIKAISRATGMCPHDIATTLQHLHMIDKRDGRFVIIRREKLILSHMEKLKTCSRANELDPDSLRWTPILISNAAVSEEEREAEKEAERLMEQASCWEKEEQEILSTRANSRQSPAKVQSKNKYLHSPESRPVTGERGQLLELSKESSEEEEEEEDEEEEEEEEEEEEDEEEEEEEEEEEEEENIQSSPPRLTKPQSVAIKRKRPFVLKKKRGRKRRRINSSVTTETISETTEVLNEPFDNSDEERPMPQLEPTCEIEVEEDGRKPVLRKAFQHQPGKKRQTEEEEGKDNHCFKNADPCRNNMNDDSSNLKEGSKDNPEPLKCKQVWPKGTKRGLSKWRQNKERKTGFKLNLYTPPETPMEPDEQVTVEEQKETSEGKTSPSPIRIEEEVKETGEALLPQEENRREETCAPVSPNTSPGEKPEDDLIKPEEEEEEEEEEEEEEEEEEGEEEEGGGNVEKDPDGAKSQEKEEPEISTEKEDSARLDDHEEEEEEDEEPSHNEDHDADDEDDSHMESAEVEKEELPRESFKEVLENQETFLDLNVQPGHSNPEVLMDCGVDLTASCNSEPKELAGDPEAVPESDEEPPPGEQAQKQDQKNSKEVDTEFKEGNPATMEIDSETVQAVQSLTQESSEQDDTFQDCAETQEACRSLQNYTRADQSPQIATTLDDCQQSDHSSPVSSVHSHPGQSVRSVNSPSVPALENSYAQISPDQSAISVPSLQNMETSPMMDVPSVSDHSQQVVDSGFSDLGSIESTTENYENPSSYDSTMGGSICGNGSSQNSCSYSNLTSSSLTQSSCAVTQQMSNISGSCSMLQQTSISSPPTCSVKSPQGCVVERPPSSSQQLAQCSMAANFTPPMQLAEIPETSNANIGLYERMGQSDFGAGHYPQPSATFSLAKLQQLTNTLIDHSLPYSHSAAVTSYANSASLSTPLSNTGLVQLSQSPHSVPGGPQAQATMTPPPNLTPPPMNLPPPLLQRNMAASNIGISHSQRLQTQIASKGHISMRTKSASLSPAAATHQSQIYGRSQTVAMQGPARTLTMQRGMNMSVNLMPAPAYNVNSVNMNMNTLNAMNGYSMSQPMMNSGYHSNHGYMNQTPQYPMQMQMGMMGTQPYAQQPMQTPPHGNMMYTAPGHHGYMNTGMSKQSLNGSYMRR
Chain of MOZ-KAT6A (Q92794 with tags, fused parts or gaps A567V): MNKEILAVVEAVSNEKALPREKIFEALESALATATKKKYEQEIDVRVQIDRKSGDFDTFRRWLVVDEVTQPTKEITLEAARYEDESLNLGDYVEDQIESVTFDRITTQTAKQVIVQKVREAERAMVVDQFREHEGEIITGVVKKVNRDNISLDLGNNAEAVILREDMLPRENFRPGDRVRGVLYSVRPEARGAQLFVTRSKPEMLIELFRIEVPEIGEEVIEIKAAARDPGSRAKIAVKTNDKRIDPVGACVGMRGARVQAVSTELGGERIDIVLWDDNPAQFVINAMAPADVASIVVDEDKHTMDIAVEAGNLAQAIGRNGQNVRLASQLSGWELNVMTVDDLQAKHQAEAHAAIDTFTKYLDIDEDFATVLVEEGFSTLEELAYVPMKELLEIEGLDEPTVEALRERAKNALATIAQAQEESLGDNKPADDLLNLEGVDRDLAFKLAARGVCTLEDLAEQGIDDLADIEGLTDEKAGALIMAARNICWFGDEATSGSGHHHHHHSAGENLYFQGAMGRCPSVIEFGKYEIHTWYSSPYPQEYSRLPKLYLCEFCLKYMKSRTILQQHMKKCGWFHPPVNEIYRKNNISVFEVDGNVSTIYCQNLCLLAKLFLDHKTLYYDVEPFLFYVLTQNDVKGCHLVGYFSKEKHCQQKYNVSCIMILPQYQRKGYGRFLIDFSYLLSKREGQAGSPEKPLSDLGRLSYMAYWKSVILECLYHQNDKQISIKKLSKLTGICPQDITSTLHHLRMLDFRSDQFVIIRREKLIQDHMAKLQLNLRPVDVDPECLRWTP
Chain of TIP60-KAT5 (Q92993 with tags, fused parts or gaps isoform Q92993-2): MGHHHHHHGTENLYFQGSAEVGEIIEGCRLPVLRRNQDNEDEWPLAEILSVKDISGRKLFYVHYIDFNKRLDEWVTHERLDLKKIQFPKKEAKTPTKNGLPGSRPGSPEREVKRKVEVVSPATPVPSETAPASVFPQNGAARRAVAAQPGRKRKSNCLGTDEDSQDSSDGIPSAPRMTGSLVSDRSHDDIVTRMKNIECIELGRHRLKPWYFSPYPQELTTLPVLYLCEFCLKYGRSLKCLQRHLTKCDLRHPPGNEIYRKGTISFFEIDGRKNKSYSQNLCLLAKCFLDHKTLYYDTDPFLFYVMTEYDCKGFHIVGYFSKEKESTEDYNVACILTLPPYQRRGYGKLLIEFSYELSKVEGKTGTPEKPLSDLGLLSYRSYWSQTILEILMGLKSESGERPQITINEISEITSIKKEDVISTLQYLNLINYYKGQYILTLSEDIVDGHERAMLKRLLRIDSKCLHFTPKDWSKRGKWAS

SMILES | IC50 (HBO-KAT7) | IC50 (MOZ-KAT6A) | IC50 [1] | IC50 (QKF-KAT6B) | IC50 [2] | IC50 (MOF-KAT8) | IC50 (TIP60-KAT5) | IC50 [3]
COCc1cc(OC)c2c(NS(=O)(=O)c3ccc(OC)c4cccnc34)noc2c1 [Example 162, 5-methoxy-N-(4-methoxy-6-(methoxymethyl)benzo[d]isoxazol-3-yl)quinoline-8-sulfonamide] | 969 nM | 147 nM | 1530 nM | 180 nM | 144 nM | 10600 nM | 14000 nM | 29500 nM
CCc1ccc(OC)c(S(=O)(=O)Nc2noc3c(-c4ccccc4)cccc23)c1 [Example 178, 5-Ethyl-2-methoxy-N-(7-phenylbenzo[d]isoxazol-3-yl)benzenesulfonamide] | 482 nM | 1440 nM | 3070 nM | 2460 nM | > 10000 nM | 770 nM | 7540 nM | 5590 nM
COCc1cc(OC)c2c(NS(=O)(=O)c3c(OC)cccc3OC)noc2c1 [Example 173, 2,6-Dimethoxy-N-(4-methoxy-6-(methoxymethyl)benzo[d]isoxazol-3-yl)benzenesulfonamide] | 169 nM | 15 nM | 533 nM | 40 nM | 20 nM | 3520 nM | 4050 nM | 26200 nM
COc1cccc2onc(NS(=O)(=O)c3cccc4cc(C)cnc34)c12 [Example 73, N-(4-methoxybenzo[d]isoxazol-3-yl)-3-methyl quinoline-8-sulfonamide] | 508 nM | 4550 nM | 12500 nM | 4050 nM | > 10000 nM | 3460 nM | 2160 nM | 36700 nM
